From US20130143929A1, “FUNGICIDAL IMIDAZOLES” (EI DU PONT DE NEMOURS AND COMPANY, priority 2010, published 2013)
Marks after values point to notes of the source that are not given here.

Legend:
Assay type in all cases: in vivo
[1] = tested on: Botrytis cinerea (the causal agent of tomato Botrytis); experiment: Test C: tomato Botrytis, preventive spray on tomato seedlings, visual disease rating; conditions: tomato Botrytis, preventive spray on tomato seedlings; asterisk: 40 ppm test suspension
How it was run: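 Preventive test: B. cinerea spore inoculation one day after tomato seedlings were sprayed to run-off with compound suspended in 50/50 acetone–water plus 250 ppm surfactant. Plants held 48 h at 20° C in saturated air, then 3 days at 24° C; visual ratings scored 100 (full control) to 0 versus controls; some entries used 40 ppm.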

[2] = tested on: Septoria tritici (the causal agent of wheat leaf blotch); experiment: Test B: wheat leaf blotch, preventive spray on wheat seedlings, visual disease rating; conditions: wheat leaf blotch, preventive spray on wheat seedlings; asterisk: 40 ppm test suspension
How it was run: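 Preventive test: Septoria tritici spores applied one day after run-off spraying of seedlings (200 ppm equals 800 g/ha; some tests 40 ppm). After 48 h at 24 °C saturated atmosphere and 19 days at 20 °C, disease scored visually as % control relative to untreated plants.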

[3] = tested on: Puccinia recondite f. sp. tritici (the causal agent of wheat leaf rust); experiment: Test A: wheat leaf rust, preventive spray on wheat seedlings, visual disease rating; conditions: wheat leaf rust, preventive spray on wheat seedlings; asterisk: 40 ppm test suspension
How it was run: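 This was a preventive test: Puccinia recondite f. sp. tritici inoculum was applied one day after compound spray to run-off. Test suspensions were made in 50/50 acetone/water with 250 ppm surfactant, at 200 ppm (800 g/ha equivalent) or 40 ppm. Visual ratings of % disease control relative to controls were made after 24 h of saturated humidity and 7 growth-chamber days, all at 20° C.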

[4] = tested on: Blumeria graminis f. sp. tritici (also known as Erysiphe graminis f. sp. tritici, the causal agent of wheat powdery mildew); experiment: Test D: wheat powdery mildew, preventive spray on wheat seedlings, visual disease rating; conditions: wheat powdery mildew, preventive spray on wheat seedlings; asterisk: 40 ppm test suspension
How it was run: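 Preventive test: seedlings sprayed to run-off and inoculated with powdery mildew spores one day later. Suspensions were made in 50/50 acetone/water with 250 ppm Trem 014 surfactant (200 ppm equals 800 g/ha). Visual ratings after 8 days at 20 °C give percent disease control versus controls.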

Compound | Test C rating (100 = 100% disease control, 0 = no disease control relative to the controls) [1] | Test B rating (100 = 100% disease control, 0 = no disease control relative to the controls) [2] | Test A rating (100 = 100% disease control, 0 = no disease control relative to the controls) [3] | Test D rating (100 = 100% disease control, 0 = no disease control relative to the controls) [4]
COc1ccc(C(O)c2c(Br)nc(C)n2-c2ccc(F)cc2Br)c(Cl)c1 (stereo not shown) [compound 324] | 80* % | 94* % | 100* % | 69* %
COc1cc(F)c(C(O)c2c(Cl)nc(C)n2-c2ccc(F)cc2Br)c(F)c1 (stereo not shown) [compound 325] | 100* % | 98* % | 100* % | 92* %
Cc1nc(Br)c(C(O)c2ccc(C#N)cc2F)n1-c1ccc(F)cc1Br (stereo not shown) [compound 326] | 30* % | 90* % | 99* % | 0* %
COc1ccc(-n2c(Cl)nc(Cl)c2C(O)c2c(F)cc(F)cc2F)c(F)c1 (stereo not shown) [compound 327] | 100* % | 100* % | 100* % | 29* %
COc1ccc(-n2c(Cl)nc(Cl)c2C(O)c2ccc(F)cc2F)c(F)c1 (stereo not shown) [compound 328] | 100* % | 100* % | 100* % | 64* %
Cc1nc(Cl)n(-c2c(F)cccc2Cl)c1C(O)c1ccc(F)cc1F (stereo not shown) [compound 332] | 99* % | 100* % | 100* % | 92* %
COc1ccc(C(O)c2c(Cl)nc(C)n2-c2ccc(F)cc2Br)c(Cl)c1 (stereo not shown) [compound 333] | 99* % | 72* % | 95* % | 86* %
Cc1nc(Br)c(C(O)c2ccc(F)cc2F)n1-c1ccc(F)cc1Br (stereo not shown) [compound 334] | 99* % | 100* % | 99* % | 64* %
Cc1cccc(Br)c1-n1c(C)nc(Br)c1C(O)c1ccc(F)cc1Cl (stereo not shown) [compound 335] | 35* % | 86* % | 98* % | 64* %
Cc1cccc(Br)c1-n1c(C)nc(Cl)c1C(O)c1ccc(F)cc1Cl (stereo not shown) [compound 336] | 72* % | 89* % | 97* % | 90* %
Cc1cccc(Br)c1-n1c(C)nc(Br)c1C(O)c1ccc(F)cc1F (stereo not shown) [compound 337] | 71* % | 86* % | 86* % | 0* %
Cc1cccc(Br)c1-n1c(C)nc(Cl)c1C(O)c1ccc(F)cc1F (stereo not shown) [compound 338] | 70* % | 93* % | 94* % | 56* %
Cc1cccc(F)c1-n1c(C)nc(Cl)c1C(O)c1ccc(F)cc1F (stereo not shown) [compound 339] | 86* % | 98* % | 98* % | 76* %
Cc1cccc(F)c1-n1c(C)nc(Cl)c1C(O)c1ccc(F)cc1Cl (stereo not shown) [compound 340] | 96* % | 100* % | 99* % | 89* %
Cc1cccc(F)c1-n1c(C)nc(Br)c1C(O)c1ccc(F)cc1F (stereo not shown) [compound 341] | 86* % | 100* % | 94* % | 43* %
Cc1cccc(F)c1-n1c(C)nc(Br)c1C(O)c1ccc(F)cc1Cl (stereo not shown) [compound 342] | 98* % | 100* % | 94* % | 64* %
Cc1cccc(Cl)c1-n1c(C)nc(Br)c1C(O)c1ccc(F)cc1Cl (stereo not shown) [compound 343] | 84* % | 100* % | 96* % | 69* %
Cc1cccc(Cl)c1-n1c(C)nc(Cl)c1C(O)c1ccc(F)cc1Cl (stereo not shown) [compound 344] | 54* % | 95* % | 99* % | 72* %
COc1ccc(C(O)c2c(Cl)nc(C)n2-c2c(F)cc(F)cc2Cl)c(F)c1 (stereo not shown) [compound 345] | 99* % | 100* % | 100* % | 35* %
COc1ccc(C(O)c2c(Br)nc(C)n2-c2c(F)cc(F)cc2Cl)c(F)c1 (stereo not shown) [compound 347] | 82* % | 100* % | 100* % | 69* %
COc1ccc(C(O)c2c(Br)nc(C)n2-c2c(F)cc(F)cc2Br)c(F)c1 (stereo not shown) [compound 348] | 98* % | 100* % | 100* % | 90* %
COc1ccc(C(O)c2c(Br)nc(C)n2-c2c(F)cc(F)cc2Cl)c(Cl)c1 (stereo not shown) [compound 349] | 98* % | 100* % | 100* % | 90* %
